Measurements taken from EP0525768A1, “Tetralones with pharmacological activity” (J. URIACH & CIA. S.A., priority 1991, dated 1993).

Experiments:
[1] = test system: portal vein isolated from rat; test: Test 1: Inhibition of the contraction induced by noradrenaline in portal vein isolated from rat; conditions: 0.5 h
Description: Test 1: Inhibition of the contraction induced by noradrenaline in portal vein isolated from rat.
Portal vein was extracted from adult male rats (between 200 and 250 g of body weight), which had been stunned by a blow in the head. Portal vein was installed into an isolated organ bath (Letica) containing a physiological saline solution (Hamilton et al., Br. J. Pharmacol., 1986, 88, 103-111) at 37 C and a gas bubbler (5% C02 and 95% 02). Contractions were induced by noradrenaline (3µM) and were reverted after thoroughly washing with physiological saline solution. Portal vein contraction was measured with an isometric force transducer and with an initial tension of 1 g. After two contractions with noradrenaline, performed in order to measure the tissue's basal response, the tested compounds were incubated for 30 minutes and a new contraction was induced.

[2] = test system: trachea isolated from guinea pig; test: Test 3: Direct relaxation of the trachea isolated from guinea pig; conditions: 50% of the maximum relaxation, maximum = relaxation induced by isoproterenol at 1x10-6 M, cumulative addition
Description: Test 3 -Direct relaxation of the trachea isolated from guinea pig.
This test was performed according to the experimental model described by Emmerson, J. and Mackay, D. (J. Pharm. Pharmacol., 1979, 31, 798). Tracheas were extracted from male guinea pigs of 400 g of body weight, which had been stunned by a blow in the head. Then, tracheas were cut in zigzag and placed into an isolated organ bath (Letica) containing Krebs-Henseleit solution at 37 °C and were bubbled with carbogen (95% 02 and 5% C02). The relaxation of the trachea was measured using an isometric force transducer. The basal tension was 0.5 g.

[3] = test system: Spontaneously hypertense rats; test: Test 2: Lowering of the arterial pressure in conscious hypertense rats; format: in vivo, rat; conditions: caudal artery, 3 animals, value ± SEM
Description: Test 2: Lowering of the arterial pressure in conscious hypertense rats.
Spontaneously hypertense rats (between 200 and 250 g of body weight) of more than 8 weeks of age have been used. Diastolic and systolic arterial pressure of the rat was measured at the caudal artery using a special sphygnomanometer (Letica 5007 and 5007/4) attached to the animal's tail. To ensure rapid and reliable data, animals were placed in a heating plate at 37 °C, with the aim to produce a vasodilatation that ensured a better fixation of the rat tail to the transducer chamber. During the experiment, rats are conscious and fixed to a clamp. The tested products were administered orally. Arterial pressure was measured every 30 minutes and 10 minutes before the administration of the tested compound. The decrease of the arterial pressure was calculated for each compound at a dose of 1 mg/Kg, using 3 animals.

| SMILES | IC50 [1] [µM] | EC50 ([2]; Cavia porcellus) [µM] | Pressure Decrease (mm Hg) ± SEM (1 mg/Kg p.o.) [3] [mm Hg] | EC50 [2] [µM] |
| --- | --- | --- | --- | --- |
| Cn1nc(O[C@@H]2c3cc(C#N)ccc3C(=O)C(C)(C)[C@H]2O)ccc1=O (racemic) [Compound 2, Rac-Trans-2,2-dimethyl-3-hydroxy-4-(6-hydroxy-1-methyl-3-pyridazinyloxy)-1-oxo-1,2,3,4-tetrahydronaphthalen-6-carbonitrile] | 2.8 | 0.31 | 112.0 ± 1.0 |  |
| CC1(C)C(=O)c2ccc(C#N)cc2[C@@H](Oc2ccc(O)nn2)[C@@H]1O (relative stereo) [Compound 1, Trans-2,2-dimethyl-3-hydroxy-4-(6-hydroxy-3-pyridazinyloxy)-1-oxo-1,2,3,4-tetrahydronaphthalen-6-carbonitrile] | 8.8 | 5.2 | 116.0 ± 5.9 |  |
| C=CCn1nc(O[C@@H]2c3cc(C#N)ccc3C(=O)C(C)(C)[C@H]2O)ccc1=O (relative stereo) [Compound 5, Trans-2,2-dimethyl-3-hydroxy-4-[6-hydroxy-1-(2-propenyl)-3-pyridazinyloxy]-1-oxo-1,2,3,4-tetrahydronaphthalen-6-carbonitrile] | 14 | 3.3 | 20.5 ± 0.5 |  |
| CC1(C)C(=O)c2ccc(Br)cc2[C@@H](Oc2ccc(O)nn2)[C@@H]1O (relative stereo) [Compound 8, Trans-6-bromo-2,2-dimethyl-3-hydroxy-4-(6-hydroxy-3-pyridazinyloxy)-1,2,3,4-tetrahydronaphthalen-1-one] | 0.8 | 15.6 | 46.5 ± 0.3 |  |
| CC1(C)C(=O)c2ccc(C#N)cc2[C@@H](Oc2ccccn2)[C@@H]1O (relative stereo) [Compound 11, Trans-2,2-dimethyl-3-hydroxy-1-oxo-4-(2-pyridyloxy)-1,2,3,4-tetrahydronaphthalen-6-carbonitrile] | 25 | 5.8 | 43.0 ± 16.0 |  |
| CC1(C)C(=O)c2ccc(C#N)cc2[C@@H](OC2=CC(=O)CC2)[C@@H]1O (relative stereo) [Compound 12, Trans-2,2-dimethyl-3-hydroxy-1-oxo-4-(3-oxo-1-cyclopent-1-enyloxy)-1,2,3,4-tetrahydronaphthalen-6-carbonitrile] |  |  | 50.0 ± 16.0 |  |
| CC1(C)C(=O)c2ccc(C#N)cc2[C@@H](NC(=O)c2ccccn2)[C@@H]1O (relative stereo) [Compound 14, Trans-2,2-dimethyl-3-hydroxy-1-oxo-4-(2-pyridylcarbonylamino)-1,2,3,4-tetrahydronaphthalen-6-carbonitrile] | 23 |  | 71.7 ± 14.2 |  |
| CC1(C)C(=O)c2ccc(C#N)cc2[C@@H](NC(=O)c2cccnc2)[C@@H]1O (relative stereo) [Compound 15, Trans-2,2-dimethyl-3-hydroxy-1-oxo-4-(3-pyridylcarbonylamino)-1,2,3,4-tetrahydronaphthalen-6-carbonitrile] | 2.8 | 4.9 | 50.0 ± 9.8 |  |
| CC1(C)C(=O)c2ccc(C#N)cc2[C@@H](NC(=O)c2ccoc2)[C@@H]1O (relative stereo) [Compound 17, Trans-2,2-dimethyl-4-(3-furylcarbonylamino)-3-hydroxy-1-oxo-1,2,3,4-tetrahydronaphthalen-6-carbonitrile] |  |  | 58.0 ± 17.5 |  |
| CC1(C)C(=O)c2ccc(C#N)cc2[C@@H](NC(=O)c2ccccc2)[C@@H]1O (relative stereo) [Compound 18, Trans-2,2-dimethyl-3-hydroxy-1-oxo-4-(phenylcarbonylamino)-1,2,3,4-tetrahydronaphthalen-6-carbonitrile] |  | 2.1 | 31.0 ± 11.9 |  |
| COc1ccc(C(=O)N[C@@H]2c3cc(C#N)ccc3C(=O)C(C)(C)[C@H]2O)cc1 (relative stereo) [Compound 19, Trans-2,2-dimethyl-3-hydroxy-4-(4-methoxyphenylcarbonylamino)-1-oxo-1,2,3,4-tetrahydronaphthalen-6-carbonitrile] | 12 | 0.3 | 46.7 ± 8.6 |  |
| Cn1nc(O[C@@H]2c3cc(C#N)ccc3C(=O)C(C)(C)[C@H]2O)ccc1=O (single isomer, unassigned) [Compound 3, (-)-Trans-2,2-dimethyl-3-hydroxy-4-(6-hydroxy-1-methyl-3-pyridazlnyloxy)-1-oxo-1,2,3,4-tetrahydronaphthalen-6-carbonitrile] |  |  |  | 0.3 |
| Cn1nc(O[C@@H]2c3cc(C#N)ccc3C(=O)C(C)(C)[C@H]2O)ccc1=O (single isomer, unassigned) [Compound 4, ( + ).Trans-2,2-d i methyl-3-hyd roxy-4-(6-hydroxy-1-methyl-3-pyridazinyloxy)-1-oxo-1,2,3,4-tetrahydronaphthalen-6-carbonitrile] |  |  |  | 4.6 |
| CC(=NC#N)NC1c2cc(C#N)ccc2C(=O)C(C)(C)C1O (stereo not drawn) [Compound 22, Trans-4-(N-cyanoacetimidoylamino)-2,2-dimethyl-3-hydroxy-1-oxo-1,2,3,4-tetrahydronaphthalen-6-carbonitrile] |  | 1.8 |  |  |
| CC1(C)C(=O)c2ccc(C#N)cc2C(Nc2cc(Cl)ncn2)C1O (stereo not drawn) [Compound 23] | 3.7 | 4.4 | 45.5 ± 11.5 |  |
